According to publication PMC11585513, “A novel ACE inhibitory peptide from Pelodiscus sinensis Wiegmann meat water-soluble protein hydrolysate” (Amino Acids, 2024):
Read-outs that look alike come from different tables or passages of the source. Peptide text beside a SMILES is read from it.

Tests used:
ACE [1] = target: T1, ACE (Oryctolagus cuniculus, UniProt P12822); assay: In vitro assay of ACE inhibitory activity (HHL substrate, HPLC of hippuric acid); format: biochemical, rabbit; details: for inhibition at 86.57 µM: 86.57 μmol/L; for inhibition at 86.57 µM / inhibition at 173.13 µM / inhibition at 346.26 µM / inhibition at 692.52 µM / inhibition at 2770.08 µM: read-out: ACE inhibitory activities (%); for inhibition at 173.13 µM: 173.13 μmol/L; for inhibition at 346.26 µM: 346.26 μmol/L; for inhibition at 692.52 µM: 692.52 μmol/L; for inhibition at 2770.08 µM: 2770.08 μmol/L
T1 construct: ACE (1U, derived from rabbit lung, CAS 207386-83-2); purchased Sigma-Aldrich Co. (St. Louis, MO, USA); host or cells: rabbit lung
T1 sequence (P12822 34-1310): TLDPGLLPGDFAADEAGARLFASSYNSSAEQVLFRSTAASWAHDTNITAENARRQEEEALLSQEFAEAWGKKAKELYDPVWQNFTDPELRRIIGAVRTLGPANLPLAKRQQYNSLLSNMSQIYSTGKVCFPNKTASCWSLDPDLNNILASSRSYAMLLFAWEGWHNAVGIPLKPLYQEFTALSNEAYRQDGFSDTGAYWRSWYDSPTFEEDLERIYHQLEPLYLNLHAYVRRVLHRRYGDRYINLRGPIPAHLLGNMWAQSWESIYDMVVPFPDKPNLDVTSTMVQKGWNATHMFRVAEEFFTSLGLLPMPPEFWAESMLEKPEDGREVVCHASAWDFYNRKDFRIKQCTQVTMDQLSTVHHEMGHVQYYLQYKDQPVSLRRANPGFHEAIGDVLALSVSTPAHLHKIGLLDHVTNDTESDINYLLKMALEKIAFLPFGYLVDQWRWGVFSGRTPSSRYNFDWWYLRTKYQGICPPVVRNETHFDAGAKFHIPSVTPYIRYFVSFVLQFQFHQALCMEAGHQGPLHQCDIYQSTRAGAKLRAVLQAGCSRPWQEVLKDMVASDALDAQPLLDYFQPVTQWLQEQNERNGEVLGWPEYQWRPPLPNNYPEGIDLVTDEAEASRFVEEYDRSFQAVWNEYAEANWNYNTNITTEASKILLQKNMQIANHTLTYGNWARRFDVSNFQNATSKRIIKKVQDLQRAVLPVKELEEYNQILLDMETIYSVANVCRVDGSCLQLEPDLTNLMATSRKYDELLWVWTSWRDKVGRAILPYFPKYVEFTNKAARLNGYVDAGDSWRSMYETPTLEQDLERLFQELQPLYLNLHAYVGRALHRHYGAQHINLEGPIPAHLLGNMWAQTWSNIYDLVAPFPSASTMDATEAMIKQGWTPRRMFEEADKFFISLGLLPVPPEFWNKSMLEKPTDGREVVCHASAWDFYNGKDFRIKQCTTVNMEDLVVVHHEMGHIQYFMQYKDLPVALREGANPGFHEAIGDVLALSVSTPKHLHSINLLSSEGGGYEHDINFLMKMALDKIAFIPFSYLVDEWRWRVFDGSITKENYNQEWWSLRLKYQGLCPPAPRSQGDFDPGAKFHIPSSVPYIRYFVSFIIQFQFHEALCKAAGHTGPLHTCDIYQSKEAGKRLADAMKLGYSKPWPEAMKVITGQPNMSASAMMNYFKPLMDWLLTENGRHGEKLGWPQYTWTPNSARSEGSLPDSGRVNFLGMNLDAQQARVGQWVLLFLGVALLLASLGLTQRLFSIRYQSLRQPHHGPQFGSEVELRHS
Experimental: WSPM prepared in our previous work (Sun et al. [2022]) and stored at − 20 °C after freeze-drying was used for this study. ACE (1U, derived from rabbit lung, CAS […]), Hippuryl-L-histidyl-L-leucine (HHL, CAS […]), and hippuric acid (HA, CAS 495-69-2) were obtained from Sigma-Aldrich Co. (St. Louis, MO, USA). The reagents used for HPLC analysis were all HPLC grade, and all other reagents used were analytical grade. The amounts of each protein were quantified using the BCA Protein Assay Kit (Bio-Rad, USA). All the protein samples were packed separately and stored at − 80 °C.
In vitro assay of ACE inhibitory activities of the selected peptides ACE inhibitory activity was evaluated in vitro according to previous methods with some modifications (Liao et al. [2018]; Xie et al. [2022]). All of the assays were carried out in 0.1 mol/L sodium borate buffer (containing 0.3 mol/L NaCl at pH 8.3). For each peptide of interest, 40 µL ACE solution (100 mU/mL) was pre-incubated with the peptide (60 µL) at 37 °C for 10 min. Next, 40 µL HHL solution (5.40 mmol/L) was added to the solution at 37 °C, and the reaction was allowed to proceed for 15 min at 37 °C. Finally, 60 µL 1 mol/L HCl was added to terminate the reaction. A borate buffer only control processed using the above procedure was also included for use as a blank. To quantify the amount of HA (hippuric acid) generated, 20 µL of reaction solution (pre-filtered using a 0.45 µm microporous membrane) was analyzed by HPLC (Waters e2695, Milford, USA) on a C18 column (150 × 4.6 mm, 5 µm; ThermoFisher Scientific, USA). The run conditions were as follows: mobile phase, methanol/water/phosphoric acid solution (15:84.9:0.1, V/V/V); flow rate, 1.0 mL/min; UV detection wavelength, 228 nm. All experiments were conducted in triplicate. ACE inhibitory activity was calculated according to the following equation:1 ACE inhibitory activity\%=B-A/B×100\% where A represents the peak area of HA in the sample, and B represents the peak area of HA in the blank.

ACE [2] = details: cited from earlier work
Experimental: The kinetics of IEWEF inhibition of ACE were determined by Lineweaver–Burk plot (Fig. 1). […] We speculate that IEWEF interacts with the non-active domain of ACE to form an enzyme-inhibitor complex even in the presence of substrate (Xie et al. [2022]). A number of non-competitive ACE inhibitory peptides have been reported in recent years, including GVSLPEW, GYGGVSLPEW, and VGINYW from α-lactalbumin (W ...

ACE [3] = details: at 0.5 mg/mL; ref Girgih et al. [2014]; cited from earlier work
Experimental: This is within the range (0.3 ~ 1000.0 µM) known to reduce blood pressure (Chen et al. [2022]). There are several reported ACE inhibitory peptides similar to IEWEF in their amino acid compositions, including IE, EW, IEW, EF, LEF and IEEAF. The peptides IE and EW are both ACE inhibitory peptides isolated from milk hydrolysates, although their IC50 values have not been reported thus far (van Platerink et al. [2008]).

[4] = from α-lactalbumin, ref Wei et al. [2022]
[5] = from Carapax Trionycis, ref Liao et al. [2018]

CC[C@H](C)[C@H](N)C(=O)N[C@@H](CCC(=O)O)C(=O)N[C@@H](Cc1c[nH]c2ccccc12)C(=O)N[C@@H](CCC(=O)O)C(=O)N[C@@H](Cc1ccccc1)C(=O)O [IEWEF, Ile-Glu-Trp-Glu-Phe] (H-IEWEF-OH)
inhibition at 86.57 µM (ACE [1]; replicate 1): 58.4% | inhibition at 86.57 µM (ACE [1]; replicate 2): 57.8% | inhibition at 86.57 µM (ACE [1]; replicate 3): 57.9% | inhibition at 173.13 µM (ACE [1]; replicate 1): 65.3% | inhibition at 173.13 µM (ACE [1]; replicate 2): 59.3% | inhibition at 173.13 µM (ACE [1]; replicate 3): 65% | inhibition at 346.26 µM (ACE [1]; replicate 1): 72.2% | inhibition at 346.26 µM (ACE [1]; replicate 2): 69.3% | inhibition at 346.26 µM (ACE [1]; replicate 3): 70.5% | inhibition at 692.52 µM (ACE [1]; replicate 1): 66.8% | inhibition at 692.52 µM (ACE [1]; replicate 2): 74.4% | inhibition at 692.52 µM (ACE [1]; replicate 3): 74.5% | inhibition at 2770.08 µM (ACE [1]; replicate 1): 91.2% | inhibition at 2770.08 µM (ACE [1]; replicate 2): 91% | inhibition at 2770.08 µM (ACE [1]; replicate 3): 91% | IC50 (ACE [1]; ACE 100 mU/mL from rabbit lung, HHL 5.40 mmol/L, 0.1 mol/L sodium borate buffer with 0.3 mol/L NaCl pH 8.3, 10 min pre-incubation, 15 min at 37 °C, HPLC-UV 228 nm, mean ± SD, n = 3, read-out: IC50 value against ACE): 41.3 µM

GVSLPEW
Inhibition mode (ACE [2]; [4]): non-competitive

GYGGVSLPEW
Inhibition mode (ACE [2]; [4]): non-competitive

IEEAF
Inhibitory activity against ACE (ACE [3]): around 40%

KHMFK
Inhibition mode (ACE [2]; [5]): non-competitive

KIGSRSRFEVT
Inhibition mode (ACE [2]; from the shiitake mushroom, ref Paisansak et al. [2021]): non-competitive

KRER
Inhibition mode (ACE [2]; [5]): non-competitive

LLYQEPLGPVR
Inhibition mode (ACE [2]; from casein hydrolysate, ref Liu et al. [2020]): non-competitive

PPLLFAAL
Inhibition mode (ACE [2]; from Takifugu flavidus, ref Su et al. [2021]): non-competitive

VGINYW
Inhibition mode (ACE [2]; [4]): non-competitive

WGAP
Inhibition mode (ACE [2]; from rabbit meat, ref Chen et al. [2021]): non-competitive
